# How the values were obtained:
# Mouse urotensin (mUR2) = biological target: T1, Mouse urotensin (mUR2) (Mus musculus, UniProt Q8VIH9); test: Radioligand binding, mouse urotensin mUR2 membranes, FlashPlate, [125I]-Urotensin II; settings: compound at 10 μM; for A11: inhibition of radioligand binding: FlashPlate; for A11 radioligand binding inhibition: mouse urotensin mUR2 membranes
# T1 construct: purchased Perkin Elmer Biosignal
# T1 sequence (Q8VIH9 1-385): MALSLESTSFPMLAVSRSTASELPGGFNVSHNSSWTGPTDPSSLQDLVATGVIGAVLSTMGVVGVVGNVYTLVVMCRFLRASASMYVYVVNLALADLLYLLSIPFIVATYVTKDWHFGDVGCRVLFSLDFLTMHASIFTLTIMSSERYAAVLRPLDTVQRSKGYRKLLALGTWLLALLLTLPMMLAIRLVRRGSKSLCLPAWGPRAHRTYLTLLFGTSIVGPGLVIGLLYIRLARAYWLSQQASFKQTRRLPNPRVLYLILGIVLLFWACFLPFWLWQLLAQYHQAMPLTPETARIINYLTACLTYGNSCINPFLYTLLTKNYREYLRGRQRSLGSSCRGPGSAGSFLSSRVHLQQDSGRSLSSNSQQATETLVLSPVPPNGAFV
# Outline: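 Cloned mouse urotensin (mUR2) receptor membranes from Perkin Elmer Biosignal were immobilized in FlashPlate microplates using a proprietary coating. Each well got 19.5 μl buffer, then 0.5 μl of DMSO, reference ligand, or compound. Adding 5 μl of [125I]-Urotensin II, diluted to 5× final concentration in binding buffer, started binding. Plates were sealed with TopSeal-A and incubated 1 hour at room temperature in the dark. Wells were counted for 30 seconds each on a TopCount after a 60-second delay, and percentage inhibition was calculated.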
# Human opioid (ORL1) = biological target: T2, Human opioid (ORL1) (Homo sapiens, UniProt P41146); test: Radioligand binding, human opioid ORL1 membranes, FlashPlate, [125I]-Nociceptin; settings: compound at 10 μM; for A10: inhibition of radioligand binding: FlashPlate; for A10 radioligand binding inhibition: human ORL1 membranes
# T2 construct: purchased Perkin Elmer Biosignal
# Outline: (§1)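 Cloned human receptor membranes were coated onto FlashPlate wells and incubated with radioligand and compound (added from a 0.5 mM DMSO daughter plate) for 1 hour at room temperature in the dark. Scintillation counting gave percent inhibition, with DMSO defining total and reference ligand defining non-specific binding.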
# Human δ-opioid (DOP) = biological target: T3, Human δ-opioid (DOP) (Homo sapiens, UniProt P41143); test: Radioligand binding, human δ-opioid (DOP) membranes, FlashPlate, [3H]-Bremazocine; settings: compound at 10 μM; for A1: inhibition of radioligand binding: FlashPlate; for A1 radioligand binding inhibition: human δ-opioid (DOP) membranes
# T3 construct: purchased Perkin Elmer Biosignal
# Outline: as §1
# Human Melanocortin (MC3) = biological target: T4, Human Melanocortin (MC3) (Homo sapiens, UniProt P41968); test: Radioligand binding, human melanocortin MC3 membranes, FlashPlate, [125I]-NDP-αMSH; settings: compound at 10 μM; for A3: inhibition of radioligand binding: FlashPlate; for A3 radioligand binding inhibition: human melanocortin MC3 membranes
# T4 construct: purchased Perkin Elmer Biosignal
# Outline: as §1
# Human κ-Opioid (KOP) = biological target: T5, Human κ-Opioid (KOP) (Homo sapiens, UniProt P41145); test: Radioligand binding, human κ-opioid (KOP) membranes, filtration, [3H]-Diprenorphine; settings: compound at 10 μM; for A2: inhibition of radioligand binding: filtration; for A2 radioligand binding inhibition: human κ-opioid (KOP) membranes
# T5 construct: purchased Perkin Elmer Biosignal
# Outline: (§2)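 Membranes from cloned human receptors were incubated with compound and radioligand for 1 hour at room temperature. Bound ligand was collected on 0.3% PEI-soaked filters, washed with cold 50 mM Tris-HCl pH 7.4, and counted by scintillation. Percent inhibition was computed against DMSO totals and reference-ligand nonspecific wells.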
# Human μ-opioid (MOP) = biological target: T6, Human μ-opioid (MOP) (Homo sapiens, UniProt P35372); test: Radioligand binding, human μ-opioid (MOP) membranes, FlashPlate, [3H]-Naloxone; settings: compound at 10 μM; for A7: inhibition of radioligand binding: FlashPlate; for A7 radioligand binding inhibition: human μ-opioid (MOP) membranes
# T6 construct: purchased Perkin Elmer Biosignal
# Outline: as §1
# Human melanocortin (MC5) = biological target: T7, Human melanocortin (MC5) (Homo sapiens, UniProt P33032); test: Radioligand binding, human melanocortin MC5 membranes, FlashPlate, [125I]-NDP-αMSH; settings: compound at 10 μM; for A5: inhibition of radioligand binding: FlashPlate; for A5 radioligand binding inhibition: human melanocortin MC5 membranes
# T7 construct: purchased Perkin Elmer Biosignal
# Outline: as §1
# Human Melanocortin (MC4) = biological target: T8, Human Melanocortin (MC4) (Homo sapiens, UniProt P32245); test: Radioligand binding, human melanocortin MC4 membranes, FlashPlate, [125I]-NDP-αMSH; settings: compound at 10 μM; for A4: inhibition of radioligand binding: FlashPlate; for A4 radioligand binding inhibition: human melanocortin MC4 membranes
# T8 construct: purchased Perkin Elmer Biosignal
# Outline: as §1
# [1] = biological target: T9, Human melanin-concentrating hormone (MCH1) (Homo sapiens, UniProt Q99705); test: Radioligand binding, human melanin-concentrating hormone MCH1 membranes, FlashPlate, [125I]-S36057; settings: compound at 10 μM; for A6: inhibition of radioligand binding: [125I]-S36057, FlashPlate; for A6 radioligand binding inhibition: human MCH1 membranes
# T9 construct: purchased Perkin Elmer Biosignal
# Outline: as §1
# Human neurokinin (NK1) = biological target: T10, Human neurokinin (NK1) (Homo sapiens, UniProt P25103); test: Radioligand binding, human neurokinin NK1 membranes, filtration, [125I]-Substance P; settings: compound at 10 μM; for A8: inhibition of radioligand binding: filtration; for A8 radioligand binding inhibition: human neurokinin NK1 membranes
# T10 construct: purchased Perkin Elmer Biosignal
# Outline: as §2
# [2] = biological target: T11, Human neuropeptide Y (NPY-Y1) (Homo sapiens, UniProt P25929); test: Radioligand binding, human neuropeptide Y NPY-Y1 membranes, FlashPlate, [125I]-PYY; settings: compound at 10 μM; for A9: inhibition of radioligand binding: FlashPlate; for A9 radioligand binding inhibition: human NPY-Y1 membranes
# T11 construct: purchased Perkin Elmer Biosignal
# T11 sequence (P25929 1-384): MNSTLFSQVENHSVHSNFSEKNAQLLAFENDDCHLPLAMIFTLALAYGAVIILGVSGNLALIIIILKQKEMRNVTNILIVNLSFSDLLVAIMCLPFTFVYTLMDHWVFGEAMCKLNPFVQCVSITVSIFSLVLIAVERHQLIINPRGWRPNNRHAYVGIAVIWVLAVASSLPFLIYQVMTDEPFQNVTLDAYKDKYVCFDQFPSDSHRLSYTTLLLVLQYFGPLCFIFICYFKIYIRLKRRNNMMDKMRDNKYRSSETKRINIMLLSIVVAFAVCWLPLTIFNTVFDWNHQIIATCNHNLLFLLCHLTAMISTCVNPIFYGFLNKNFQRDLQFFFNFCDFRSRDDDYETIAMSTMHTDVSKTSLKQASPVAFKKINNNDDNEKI
# Outline: as §1
# T9 sequence (Q99705 whole entry): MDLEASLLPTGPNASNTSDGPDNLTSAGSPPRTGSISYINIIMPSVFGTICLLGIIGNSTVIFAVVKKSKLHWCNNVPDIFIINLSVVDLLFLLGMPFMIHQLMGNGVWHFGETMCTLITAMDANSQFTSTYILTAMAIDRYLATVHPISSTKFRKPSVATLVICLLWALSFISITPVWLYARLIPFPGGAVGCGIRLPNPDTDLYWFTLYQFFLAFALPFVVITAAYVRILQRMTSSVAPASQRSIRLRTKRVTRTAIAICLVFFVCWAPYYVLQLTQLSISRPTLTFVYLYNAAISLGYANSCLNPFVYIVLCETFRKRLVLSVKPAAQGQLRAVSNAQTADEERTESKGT
# T5 sequence (P41145 whole entry): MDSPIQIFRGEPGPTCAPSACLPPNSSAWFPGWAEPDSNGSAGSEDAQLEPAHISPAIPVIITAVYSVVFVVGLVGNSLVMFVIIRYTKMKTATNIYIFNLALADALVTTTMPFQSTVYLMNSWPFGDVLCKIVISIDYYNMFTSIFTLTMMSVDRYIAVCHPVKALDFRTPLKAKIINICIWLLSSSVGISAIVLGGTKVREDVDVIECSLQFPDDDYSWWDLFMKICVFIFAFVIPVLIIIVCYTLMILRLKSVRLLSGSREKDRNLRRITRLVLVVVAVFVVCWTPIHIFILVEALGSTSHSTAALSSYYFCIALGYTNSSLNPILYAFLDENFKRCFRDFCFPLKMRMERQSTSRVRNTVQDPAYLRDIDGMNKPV
# T8 sequence (P32245 whole entry): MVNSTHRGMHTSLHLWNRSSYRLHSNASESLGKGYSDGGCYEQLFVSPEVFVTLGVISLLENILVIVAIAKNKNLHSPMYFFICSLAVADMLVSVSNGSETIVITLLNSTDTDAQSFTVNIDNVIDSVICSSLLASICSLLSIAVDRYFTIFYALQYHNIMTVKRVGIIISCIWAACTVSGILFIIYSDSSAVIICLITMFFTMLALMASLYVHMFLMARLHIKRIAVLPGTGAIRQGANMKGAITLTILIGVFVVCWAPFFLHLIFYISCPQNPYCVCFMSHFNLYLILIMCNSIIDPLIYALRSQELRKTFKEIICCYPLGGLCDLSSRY
# T3 sequence (P41143 whole entry): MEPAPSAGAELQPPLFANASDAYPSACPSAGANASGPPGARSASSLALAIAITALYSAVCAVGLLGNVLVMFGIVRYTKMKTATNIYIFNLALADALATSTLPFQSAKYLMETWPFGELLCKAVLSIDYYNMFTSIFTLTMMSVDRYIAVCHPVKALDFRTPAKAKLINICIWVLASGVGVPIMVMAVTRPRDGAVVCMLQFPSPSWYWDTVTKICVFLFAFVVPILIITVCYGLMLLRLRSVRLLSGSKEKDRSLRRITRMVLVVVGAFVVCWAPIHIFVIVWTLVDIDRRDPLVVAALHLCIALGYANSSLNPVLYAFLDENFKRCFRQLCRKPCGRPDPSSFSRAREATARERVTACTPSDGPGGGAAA
# T4 sequence (P41968 whole entry): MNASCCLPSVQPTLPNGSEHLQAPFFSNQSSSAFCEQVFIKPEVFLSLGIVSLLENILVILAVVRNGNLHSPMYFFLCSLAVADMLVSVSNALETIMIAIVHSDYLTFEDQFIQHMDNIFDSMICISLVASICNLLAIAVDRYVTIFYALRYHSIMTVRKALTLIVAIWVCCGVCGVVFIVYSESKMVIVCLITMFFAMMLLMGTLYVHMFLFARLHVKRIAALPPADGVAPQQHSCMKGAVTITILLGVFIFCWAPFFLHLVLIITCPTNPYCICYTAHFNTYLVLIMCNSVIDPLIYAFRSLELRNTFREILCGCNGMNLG
# T2 sequence (P41146 whole entry): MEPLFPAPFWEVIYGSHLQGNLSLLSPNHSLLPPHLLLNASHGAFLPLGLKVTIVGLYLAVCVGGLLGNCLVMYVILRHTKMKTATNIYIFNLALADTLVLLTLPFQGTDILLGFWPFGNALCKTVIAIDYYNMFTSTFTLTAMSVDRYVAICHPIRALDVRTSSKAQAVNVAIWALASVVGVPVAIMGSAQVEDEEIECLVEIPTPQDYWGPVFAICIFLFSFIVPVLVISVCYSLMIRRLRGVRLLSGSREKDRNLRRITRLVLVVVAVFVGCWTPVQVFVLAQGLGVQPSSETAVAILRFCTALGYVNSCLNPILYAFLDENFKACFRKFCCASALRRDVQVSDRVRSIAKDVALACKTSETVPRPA
# T7 sequence (P33032 whole entry): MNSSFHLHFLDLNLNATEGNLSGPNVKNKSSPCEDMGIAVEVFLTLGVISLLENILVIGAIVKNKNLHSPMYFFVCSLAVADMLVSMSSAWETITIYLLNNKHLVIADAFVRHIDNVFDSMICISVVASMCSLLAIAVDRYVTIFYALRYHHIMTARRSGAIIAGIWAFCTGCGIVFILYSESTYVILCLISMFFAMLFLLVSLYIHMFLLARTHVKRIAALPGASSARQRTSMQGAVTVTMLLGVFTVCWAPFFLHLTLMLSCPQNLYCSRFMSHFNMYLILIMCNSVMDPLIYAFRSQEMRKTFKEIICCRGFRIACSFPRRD
# T10 sequence (P25103 whole entry): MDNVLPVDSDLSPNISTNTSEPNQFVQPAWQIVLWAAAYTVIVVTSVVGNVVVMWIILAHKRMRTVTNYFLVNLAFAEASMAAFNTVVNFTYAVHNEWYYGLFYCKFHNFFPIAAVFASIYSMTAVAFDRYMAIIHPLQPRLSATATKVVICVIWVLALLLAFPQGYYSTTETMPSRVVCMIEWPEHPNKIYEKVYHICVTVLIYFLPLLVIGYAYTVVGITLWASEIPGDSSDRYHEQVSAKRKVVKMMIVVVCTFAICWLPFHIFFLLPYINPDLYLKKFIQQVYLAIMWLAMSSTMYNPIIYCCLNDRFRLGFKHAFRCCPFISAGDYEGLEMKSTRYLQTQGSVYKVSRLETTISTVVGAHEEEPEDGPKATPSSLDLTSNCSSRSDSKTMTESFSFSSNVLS
# T6 sequence (P35372 whole entry): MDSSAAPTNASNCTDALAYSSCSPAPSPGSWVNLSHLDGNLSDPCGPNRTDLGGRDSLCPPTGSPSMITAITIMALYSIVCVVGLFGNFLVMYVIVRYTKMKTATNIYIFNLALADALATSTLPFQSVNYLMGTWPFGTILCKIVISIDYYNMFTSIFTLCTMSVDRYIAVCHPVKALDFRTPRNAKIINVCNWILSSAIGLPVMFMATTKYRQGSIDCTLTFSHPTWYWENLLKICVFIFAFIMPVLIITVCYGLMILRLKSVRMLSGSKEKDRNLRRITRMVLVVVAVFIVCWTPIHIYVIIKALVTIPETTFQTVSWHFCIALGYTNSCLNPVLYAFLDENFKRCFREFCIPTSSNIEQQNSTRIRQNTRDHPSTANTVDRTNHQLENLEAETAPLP
Structure (SMILES),A11: inhibition of radioligand binding (Mouse urotensin (mUR2); [125I]-Urotensin II),A10: inhibition of radioligand binding (Human opioid (ORL1); [125I]-Nociceptin),A1: inhibition of radioligand binding (Human δ-opioid (DOP); [3H]-Bremazocine),A3: inhibition of radioligand binding (Human Melanocortin (MC3); [125I]-NDP-αMSH),A2: inhibition of radioligand binding (Human κ-Opioid (KOP); [3H]-Diprenorphine),A7: inhibition of radioligand binding (Human μ-opioid (MOP); [3H]-Naloxone),A5: inhibition of radioligand binding (Human melanocortin (MC5); [125I]-NDP-αMSH),A4: inhibition of radioligand binding (Human Melanocortin (MC4); [125I]-NDP-αMSH),A6: inhibition of radioligand binding [1],A8: inhibition of radioligand binding (Human neurokinin (NK1); [125I]-Substance P),A9: inhibition of radioligand binding ([2]; [125I]-PYY),A11 radioligand binding inhibition (Mouse urotensin (mUR2)),A10 radioligand binding inhibition (Human opioid (ORL1)),A1 radioligand binding inhibition (Human δ-opioid (DOP)),A3 radioligand binding inhibition (Human Melanocortin (MC3)),A2 radioligand binding inhibition (Human κ-Opioid (KOP)),A7 radioligand binding inhibition (Human μ-opioid (MOP)),A5 radioligand binding inhibition (Human melanocortin (MC5)),A4 radioligand binding inhibition (Human Melanocortin (MC4)),A6 radioligand binding inhibition [1],further results
COCC1OC(OCc2ccc(Cl)cc2)C(NC(=O)CCN)C(OCc2ccc3ccccc3c2)C1O (stereo not shown) [compound 210],− (“−” indicates less than 50% inhibition at 10 μM),− (“−” indicates less than 50% inhibition at 10 μM),− (“−” indicates less than 50% inhibition at 10 μM),− (“−” indicates less than 50% inhibition at 10 μM),− (“−” indicates less than 50% inhibition at 10 μM),− (“−” indicates less than 50% inhibition at 10 μM),+ (“+” indicates greater than 50% inhibition at 10 μM),+ (“+” indicates greater than 50% inhibition at 10 μM),− (“−” indicates less than 50% inhibition at 10 μM),+ (“+” indicates greater than 50% inhibition at 10 μM),− (“−” indicates less than 50% inhibition at 10 μM),–,–,–,–,–,–,–,–,–,–
CSC1OC(COCc2cccc(N)c2)C(O)C(OCc2ccc(Cl)cc2)C1NC(=O)c1ccccc1 (stereo not shown) [compound 327],–,–,–,–,–,–,–,–,–,–,–,–,–,–,–,–,–,–,–,–,"A11: inhibition of radioligand binding, mouse urotensin (mUR2) (Mouse urotensin (mUR2); [125I]-Urotensin II): − (“−” indicates less than 50% inhibition at 10 μM); A10: inhibition of radioligand binding, human opioid (ORL1) (Human opioid (ORL1); [125I]-Nociceptin): − (“−” indicates less than 50% inhibition at 10 μM); A1: inhibition of radioligand binding, human δ-opioid (DOP) (Human δ-opioid (DOP); [3H]-Bremazocine): − (“−” indicates less than 50% inhibition at 10 μM); A3: inhibition of radioligand binding, human melanocortin (MC3) (Human Melanocortin (MC3); [125I]-NDP-αMSH): − (“−” indicates less than 50% inhibition at 10 μM); A2: inhibition of radioligand binding, human κ-opioid (KOP) (Human κ-Opioid (KOP); [3H]-Diprenorphine): − (“−” indicates less than 50% inhibition at 10 μM); A7: inhibition of radioligand binding, human μ-opioid (MOP) (Human μ-opioid (MOP); [3H]-Naloxone): − (“−” indicates less than 50% inhibition at 10 μM); A5: inhibition of radioligand binding, human melanocortin (MC5) (Human melanocortin (MC5); [125I]-NDP-αMSH): − (“−” indicates less than 50% inhibition at 10 μM); A4: inhibition of radioligand binding, human melanocortin (MC4) (Human Melanocortin (MC4); [125I]-NDP-αMSH): − (“−” indicates less than 50% inhibition at 10 μM); A6: inhibition of radioligand binding, human melanin-concentrating hormone (MCH1) ([1]; [125I]-S36057): − (“−” indicates less than 50% inhibition at 10 μM); A8: inhibition of radioligand binding, human neurokinin (NK1) (Human neurokinin (NK1); [125I]-Substance P): + (“+” indicates greater than 50% inhibition at 10 μM); A9: inhibition of radioligand binding, human neuropeptide Y (NPY-Y1) ([2]; [125I]-PYY): − (“−” indicates less than 50% inhibition at 10 μM)"
COC[C@H]1OC(OCCc2ccccc2)[C@H](NC(=O)CNC(=N)N)[C@@H](OCc2ccc3ccccc3c2)[C@@H]1O (stereo partly shown) [compound 44],–,–,–,–,–,–,–,–,–,–,–,− (“−” indicates less than 50% inhibition at 10 μM),− (“−” indicates less than 50% inhibition at 10 μM),− (“−” indicates less than 50% inhibition at 10 μM),− (“−” indicates less than 50% inhibition at 10 μM),− (“−” indicates less than 50% inhibition at 10 μM),− (“−” indicates less than 50% inhibition at 10 μM),+ (“+” indicates greater than 50% inhibition at 10 μM),+ (“+” indicates greater than 50% inhibition at 10 μM),− (“−” indicates less than 50% inhibition at 10 μM),A8 radioligand binding inhibition (Human neurokinin (NK1)): − (“−” indicates less than 50% inhibition at 10 μM); A9 radioligand binding inhibition [2]: − (“−” indicates less than 50% inhibition at 10 μM)
CO[C@H]1[C@H](O)[C@@H](COCc2ccc3ccccc3c2)OC(OCc2ccc3ccccc3c2)[C@@H]1NC(=O)CNC(=N)N (stereo partly shown) [compound 70],–,–,–,–,–,–,–,–,–,–,–,− (“−” indicates less than 50% inhibition at 10 μM),− (“−” indicates less than 50% inhibition at 10 μM),− (“−” indicates less than 50% inhibition at 10 μM),+ (“+” indicates greater than 50% inhibition at 10 μM),− (“−” indicates less than 50% inhibition at 10 μM),+ (“+” indicates greater than 50% inhibition at 10 μM),+ (“+” indicates greater than 50% inhibition at 10 μM),+ (“+” indicates greater than 50% inhibition at 10 μM),− (“−” indicates less than 50% inhibition at 10 μM),A8 radioligand binding inhibition (Human neurokinin (NK1)): + (“+” indicates greater than 50% inhibition at 10 μM); A9 radioligand binding inhibition [2]: − (“−” indicates less than 50% inhibition at 10 μM)
COCC1OC(OCc2ccc(Cl)cc2)C(NC(=O)CCN)C(OCc2ccccc2)C1O (stereo not shown) [compound 195],− (“−” indicates less than 50% inhibition at 10 μM),− (“−” indicates less than 50% inhibition at 10 μM),− (“−” indicates less than 50% inhibition at 10 μM),− (“−” indicates less than 50% inhibition at 10 μM),− (“−” indicates less than 50% inhibition at 10 μM),− (“−” indicates less than 50% inhibition at 10 μM),− (“−” indicates less than 50% inhibition at 10 μM),− (“−” indicates less than 50% inhibition at 10 μM),− (“−” indicates less than 50% inhibition at 10 μM),+ (“+” indicates greater than 50% inhibition at 10 μM),− (“−” indicates less than 50% inhibition at 10 μM),–,–,–,–,–,–,–,–,–,–

# Reference: patent publication US20080009418A1, “Selective Inhibitors” (Alchemia LTD., priority 2004, published 2008)
